Test results: patent US20220304958A1, “SMALL MOLECULE INHIBITORS OF A PROTEIN COMPLEX” (THE REGENTS OF THE UNIVERSITY OF CALIFORNIA, priority 2019, published 2022)
Read-outs that look alike come from different tables or passages of the source. Each block holds one molecule with its values, some of them ahead of it.

Columns and labels:
KLF4 and KLF2 mRNA [1] = test: KLF4 and KLF2 mRNA expression in HUVEC by qPCR; format: cell-based, human; details: dose response, 24 hours
Procedure: (§1) Cell culture. hCMEC/D3 cells at passages 30-37 were grown to confluence on collagen-coated plates and cultured using in EGM-2 MV medium and supplemented with complements obtained from the manufacturer (Lonza) as previously reported (31). HUVEC (Lonza) at passages 4-7 were grown to confluence on gelatin-coated plates and maintained using complete EGM-2 media (Lonza). HKi2, 10 mM in DMSO, was maintained at room temperature for 30 min rotating before use. Cells were then treated with HKi2 at the concentrations and times indicated for each experiment. Vehicle cells were treated with the same volume of DMSO as used with HKi2. Cells were maintained at 37° C. in 95% air and 5% CO2. RNA extraction and qRT-PCR. HUVECs total RNA were isolated using MagMAXTM-96 for Microarrays Total RNA Isolation Kit, according to the manufacturer's protocol (Thermo Fisher Scientific Cat #AM1839). qPCR analysis, single-stranded cDNA was produced from 10 ng RNA isolated from HUVECs using PrimeScriptTM RT Master Mix according to the manufacturer's protocol (Takara Cat. #R[…]). The levels of genes were analyzed using iTaqTM Universal SYBR Green (BioRad Cat #1725122) and thermal cycler (CFX96 Real-Time System; Bio-Rad) according to the manufacturer's protocol. Actin mRNA levels was used as internal control, and the 2^-ΔΔCT method was used for data analysis.

PI3K/Akt signaling = PI3K/Akt signaling in hCMEC/D3 cells by Western blot; format: cell-based, human; details: hCMEC/D3, 50 μM, 1 h
Procedure: Cell culture. hCMEC/D3 cells at passages 30-37 were grown to confluence on collagen-coated plates and cultured using in EGM-2 MV medium and supplemented with complements obtained from the manufacturer (Lonza) as previously reported (31). HUVEC (Lonza) at passages 4-7 were grown to confluence on gelatin-coated plates and maintained using complete EGM-2 media (Lonza). HKi2, 10 mM in DMSO, was maintained at room temperature for 30 min rotating before use. Cells were then treated with HKi2 at the concentrations and times indicated for each experiment. Vehicle cells were treated with the same volume of DMSO as used with HKi2. Cells were maintained at 37° C. in 95% air and 5% CO2. Western blotting and immunoprecipitation. […] Cell lysates were spun at 20,000×g for 15 minutes at 4° C. The PI3 Kinase was immunoprecipitated using the mouse monoclonal antibody as described in the manufacturer instructions and supernatants were stored at -80° C. Samples were resolved on 4-12% gradient gel and blotted using specific antibodies, as indicated. Band intensity was determined using a Li-Cor system and values obtained for phosphoproteins were normalized to the total protein in the same sample. Antibodies to phospho-Akt-Ser473 (clone: 193H12; rabbit mAb; #4058; 1:250), Akt (clone: 40D4; mouse mAb; #2920; 1:500), phospho-PI3 Kinase p85 […] (rabbit polyclonal; #4228; 1:500) were from Cell Signaling. […]

klf2a = klf2a reporter Tg(klf2a:H2B-EGFP) zebrafish embryos; format: in vivo; details: 4 μM, 4 h, added at 26 hpf, imaged at 30 hpf
Source text: Zebrafish. A previously reported transgenic zebrafish line Tg(klf2a:H2B-EGFP) was used to monitor the expression of klf2a (32, 33). […] At 30 hpf, these treated embryos were scanned for EGFP expression by Zeiss LSM 880 Airiscan.

KLF4 and KLF2 mRNA [2] = test: KLF4 and KLF2 mRNA expression in hCMEC/D3 cells by qPCR; format: cell-based, human
Procedure: as §1

[3] = Aqueous solubility in assay buffer; format: physicochemical
PARD3 binding to HEG1 = test: PARD3 pulldown assay with HEG1 matrix; set-up: species or system human (HUVEC lysates); details: 35 μM compound, HUVEC lysates, HEG1 WT matrix
Procedure: PARD3 pulldown assay. Neutravidin agarose beads (Thermo Fisher) matrix with wild-type HEG1 cytoplasmic tail (1274-1381) and ΔYF (1274-1379) were previously described (5, 26). HUVEC were collected in cold lysis buffer (50 mM Tris-HCl, pH 7.4, 100 mM NaCl, 5 mM MgCl2, 0.5% NP-40) plus protease inhibitor cocktail (Roche). A total of 20 μl of HEG1 matrix was added to 600 μg of clarified lysates and incubated at 4° C. overnight while rotating. All conditions contained either vehicle DMSO, 35 μM HKi2 or 35 μM 2-hydroxy-1-naphthoic acid. After three washes with cold lysis buffer, beads were mixed with sample buffer and proteins were separated by SDS-PAGE. Bound PARD3 was detected by using polyclonal Rabbit anti-PARD3 (Millipore, 07-330) antibody.

HUVEC = test: Genome-wide RNA sequencing of HUVEC; format: cell-based, human; details: for effects on gene expression by RNA-Seq: same conditions (75 μM, 24 h)
Procedure: Cell culture. hCMEC/D3 cells at passages 30-37 were grown to confluence on collagen-coated plates and cultured using in EGM-2 MV medium and supplemented with complements obtained from the manufacturer (Lonza) as previously reported (31). HUVEC (Lonza) at passages 4-7 were grown to confluence on gelatin-coated plates and maintained using complete EGM-2 media (Lonza). HKi2, 10 mM in DMSO, was maintained at room temperature for 30 min rotating before use. Cells were then treated with HKi2 at the concentrations and times indicated for each experiment. Vehicle cells were treated with the same volume of DMSO as used with HKi2. Cells were maintained at 37° C. in 95% air and 5% CO2. Genome-wide RNA sequencing. The quantity (ND-1000 spectrophotometer; NanoDrop Technologies) and quality (Bioanalyzer; Agilent) of total RNA were analyzed. Only RNA with a RNA integrity number (RIN) greater than 8 RNA was used for library preparation. Libraries were generated using Illumina's TruSeq Stranded mRNA Sample Prep kit using 400 ng RNA. RNA libraries were multiplexed and sequenced with 100-bp […] single-end reads (SR100) to a depth of 30 million reads per sample on an Illumina HiSeq2500. Fastq files from RNA-seq experiments were mapped to the human genome (GRCh primary assembly release 96) using Hisat2 with default parameters. All bioinformatics analyses were conducted in R using the […] package RNAseq workflows. Differential gene expression analysis was conducted with EdgeR.

HEG1-KRIT1 interaction = target: T1, HEG1-KRIT1 interaction (Homo sapiens, UniProt O00522); test: Flow cytometry assay for the HEG1-KRIT1 FERM domain interaction (competition binding on HEG1 matrix beads); details: read-out: IC50
T1 construct: His6-EGFP-KRIT1 (WT) FERM domain (417-736) and KRIT1 (L717,721A) mutant were cloned into pETM-11; His6 (N); made in house; host or cells: E. coli BL21 Star (DE3)
Procedure: Bead Coupling. SPHERO Neutravidin Polystyrene Particles, […] (Spherotech) were washed twice with wash buffer (20 mM Tris, 150 mM NaCl. pH 7.4 containing 0.01% NP-40, and 1 mM EDTA). Prior to incubation with biotin-tagged HEG 1 cytoplasmic tail protein, an appropriate volume of bead slurry was passivated to inhibit non-specific binding by incubation for 30 minutes at room temperature in reaction buffer containing 0.1% BSA (20 mM Tris, 150 mM NaCl, pH 7.4 0.01% NP-40, 1 mM EDTA, 1 mM DTT, and 0.1% BSA). Passivated beads were collected by centrifugation, resuspended to 3,600 particles/μl in reaction buffer and biotinylated HEG1 tail was added to a final concentration of 150 nM and incubated overnight on a rotator at 4° C. The beads were washed three times by centrifugation with ice-cold reaction buffer to remove unbound HEG1 peptide. Beads were diluted such that a final concentration of 2000 beads/μL were available for addition to assay plates.
Flow cytometry assay. A final volume of 100 μl containing 140 nM EGFP-KRIT1 FERM domain, with 10% DMSO or 10% compounds in DMSO, was incubated for 15 minutes at room temperature on a rotator. 100 μl of beads were added to the mixture for a final volume of 200 μl at 1,000 particles/μl with 70 nM EGFP-KRIT1 and incubated for 15 minutes at room temperature on a rotator. The control beads were: without KRIT1 (minimum signal); with KRIT1 (maximum signal); and with KRIT1 plus 2 μM HEG1 7-mer (positive blocking control). The EGFP fluorescence was measured using a BD Accuri flow cytometer. For screening purposes, the final volume of the reaction was scaled down to 10 μl and samples were processed as previously described (27). For FIGS. 1D-1F, 2B, and 3E, a representative experiment is shown of at the least 3 independent repeats.
Assay plate assembly. Plate assays were performed in 384-well microtiter plates (Greiner Bio-one, #784101). Reaction buffer. HEG1-coupled beads, and EGFP-KRIT-FERM constructs were added using a MultiFlo™ Microplate Dispenser (BioTek Instruments, Inc.). Compounds were added to single-point assay plates pre-loaded with reaction buffer using a Biomek^NX liquid handler (BeckmanCoulter) equipped with a […] pintool (V & P Scientific, Inc.). Compound libraries were dispensed to a final concentration of 10 μM. An equal volume (10 nL) of DMSO was added to the vehicle control wells. Following the addition of library compounds, 5 μL of assay buffer was added and the plates were mixed before addition of 5 μL of the protein-coupled bead mixtures; Plates were protected from light and incubated on a rotator for 15 minutes at room temperature. Binding of EGFP-KRIT to HEG1 coupled beads was evaluated using an Accuri C6 flow cytometer.
Data Acquisition. Assay plates were sampled using the HyperCyt™ high throughput flow cytometry platform (Intellicyt; Albuquerque, N. Mex.). During sampling, the probe moves from well to well and samples 1-2 μL from each well pausing 0.4 sec in the air before sampling the next well. The resulting sample stream consisting of 384 separated samples is delivered to an Accuri C6 flow cytometer (BD Biosciences; San Jose, Calif.). Plate data are acquired as time-resolved files that are parsed by software-based well identification algorithms and merged with compound library files. Plate performance was validated using the Z-prime calculation (28).
Compounds that satisfied hit selection criteria in the primary screen were cherry-picked from compound storage plates and tested to confirm activity and determine potency. Dose response data points were fitted by Prism software (GraphPad Software Inc., San Diego, Calif.) using nonlinear least-squares regression in a sigmoidal dose-response model with variable slope, also known as the 4-parameter logistic equation.

log P = format: physicochemical; details: method not stated (FIG. 2A)
[4] = Table 2, flow cytometry-screening assay, NI = no inhibition detected up to 500 μM

T1 sequence (O00522 417-736): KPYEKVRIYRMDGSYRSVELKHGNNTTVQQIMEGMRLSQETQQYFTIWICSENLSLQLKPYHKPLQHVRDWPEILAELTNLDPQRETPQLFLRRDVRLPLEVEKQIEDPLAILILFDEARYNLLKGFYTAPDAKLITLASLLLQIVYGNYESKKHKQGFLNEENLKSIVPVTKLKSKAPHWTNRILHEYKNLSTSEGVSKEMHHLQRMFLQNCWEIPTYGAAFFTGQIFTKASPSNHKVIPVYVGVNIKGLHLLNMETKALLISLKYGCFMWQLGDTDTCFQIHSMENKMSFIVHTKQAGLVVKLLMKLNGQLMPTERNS

- solubility in aqueous solution ([3]; qualitative, compared with HKi1): largely improved
- PARD3 binding to HEG1 (PARD3 binding to HEG1): no effects
SMILES: O=Cc1c(O)ccc2ccccc12 [2-hydroxy-1-naphtaldehyde (Hki2), 2-hydroxy-1-naphthaldehyde]
- KLF4 and KLF2 mRNA levels (KLF4 and KLF2 mRNA [1]): upregulated
- increase in Akt activation (pAkt-S473) (PI3K/Akt signaling; Western blot): 2.2 fold
- increase in PI3K activity (PI3K/Akt signaling; phospho-p85): 2 fold
- nuclear EGFP (klf2a reporter) in arterial and venous endothelium (klf2a): increase
- KLF4 and KLF2 mRNA levels (KLF4 and KLF2 mRNA [2]; hCMEC/D3, 25 μM, 12 h): upregulated
- KLF2 upregulation, fold increase (KLF4 and KLF2 mRNA [2]; hCMEC/D3, 50 μM, 4 h): ~1.5 fold
- KLF4 upregulation, fold increase (KLF4 and KLF2 mRNA [2]; hCMEC/D3, 50 μM, 4 h): ~3.5 fold
- KLF2 mRNA levels, fold increase (KLF4 and KLF2 mRNA [2]; hCMEC/D3, 50 μM, 12 h): ~2.3 fold
- KLF4 mRNA levels, fold increase (KLF4 and KLF2 mRNA [2]; hCMEC/D3, 50 μM, 12 h): ~6.5 fold
- KLF4 levels, fold increase (KLF4 and KLF2 mRNA [2]; hCMEC/D3, 50 μM, 24 h): ~6 fold
- VEGFA gene expression (HUVEC; 75 μM, 24 h, RNA-seq): upregulation
- genes differentially expressed between treatment and vehicle control (HUVEC; 75 μM, 24 h, corrected P<0.05, ≥2.5-fold change): 457 genes
- CCL2 (Monocyte chemoattractant protein) expression, ratio experimental/control FPKM (HUVEC; 75 μM, RNA-Seq, n=3): −7.95
- CXCR4 (C-X-C chemokine receptor type 4) expression, ratio experimental/control FPKM (HUVEC; 75 μM, RNA-Seq, n=3): −4.41
- KLF2 expression, ratio experimental/control FPKM (HUVEC; 75 μM, RNA-Seq, n=3): 3.07
- KLF4 expression, ratio experimental/control FPKM (HUVEC; 75 μM, RNA-Seq, n=3): 3.89
- THBD (Thrombomodulin) expression, ratio experimental/control FPKM (HUVEC; 75 μM, RNA-Seq, n=3): 8.34
- THBSI (Thrombospondin 1) expression, ratio experimental/control FPKM (HUVEC; 75 μM, RNA-Seq, n=3): −5.78

SMILES: O=C(O)c1c(O)ccc2ccccc12 [Compound 9, 2-hydroxy-1-naphthoic acid]
- KLF4 or KLF2 elevation (KLF4 and KLF2 mRNA [2]; hCMEC/D3, 25 μM, 4 hours): did not elevate
- PARD3 binding to HEG1 (PARD3 binding to HEG1): no effects
- IC50 (HEG1-KRIT1 interaction; [4]): > 500 µM
- effects on gene expression by RNA-Seq (HUVEC): no significant effects

- IC50 (HEG1-KRIT1 interaction; [4]): > 500 µM
SMILES: Oc1ccc2ccccc2c1 [Compound 10, naphthalene-2-ol]
- effects on gene expression by RNA-Seq (HUVEC): no significant effects

- logP (log P): 5.7
- solubility ([3]; assay buffer, aqueous buffer, in the buffer conditions of the assay): < 50 µM
- IC50 (HEG1-KRIT1 interaction; inhibition of the HEG1-KRIT1 interaction, flow cytometry assay): ~10 µM
SMILES: CC(NC(=O)c1ccccc1N=Cc1c(O)ccc2ccccc12)c1ccccc1 (centres unmarked) [Sirtinol (Hki1), 2-[[(2-hydroxy-1-naphthalenyl)methylene]amino]-N-(1-phenylethyl)-benzamide, reference compound]
